Reference: PubChem BioAssay (NCI)
“And” between values parts separate entries of the source, which are not always exact repeats. Identical values can stand only once.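 Test compounds were applied to cells in 96-well plates for 48 hours at 5 doses. GI50 = concentration required for 50% inhibition of growth. Definition used: TGI = concentration required for complete inhibition of growth.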

Experiments:
Test in all cases: NCI tumour cell line growth inhibition, 48 h
BT-549 breast = test system: BT-549 breast
MDA-MB-435 = test system: MDA-MB-435
SNB-75 CNS = test system: SNB-75 CNS
UO-31 renal = test system: UO-31 renal
SK-MEL-28 melanoma = test system: SK-MEL-28 melanoma
OVCAR-5 ovarian = test system: OVCAR-5 ovarian
UACC-62 melanoma = test system: UACC-62 melanoma
NCI-H23 lung = test system: NCI-H23 lung
HOP-92 NSCLC = test system: HOP-92 NSCLC
MALME-3M melanoma = test system: MALME-3M melanoma

Compound | TGI (BT-549 breast) | TGI (MDA-MB-435) [µM] | TGI (SNB-75 CNS) [µM] | TGI (UO-31 renal) | TGI (SK-MEL-28 melanoma) [µM] | TGI (OVCAR-5 ovarian) | TGI (UACC-62 melanoma) | TGI (NCI-H23 lung) | TGI (HOP-92 NSCLC) [µM] | GI50 (BT-549 breast) [µM] | GI50 (MDA-MB-435) [µM] | GI50 (SNB-75 CNS) [µM] | GI50 (UO-31 renal) [µM] | GI50 (SK-MEL-28 melanoma) [µM] | GI50 (OVCAR-5 ovarian) [µM] | GI50 (MALME-3M melanoma) [µM] | TGI (MALME-3M melanoma) [µM] | GI50 (UACC-62 melanoma) [µM] | GI50 (NCI-H23 lung) [µM] | GI50 (HOP-92 NSCLC)
CCc1nc(N)nc(N)c1-c1ccc2nnn(O)c2c1 | > 100 µM | > 100 | > 100 | > 100 µM | > 100 | > 100 µM | > 100 µM | > 100 µM | > 100 | – | – | – | – | – | – | – | – | – | – | –
CCCc1cc(=O)n2c(C(=O)Nc3cccc(C(=O)OCC)c3)c(C(=O)Nc3ccc(F)cc3)sc2n1 | > 140 µM | > 140 | 17.5 | 42.6 µM | > 140 | > 140 µM | > 140 µM | > 140 µM | 7.99 | > 140 | > 140 | 3.54 | 7.27 | 133 | 136 | 13.1 | 58 | 48.4 | 66.3 | 1.33 µM
Nc1nc(N)c(-c2ccccc2)c(C(=O)Nc2ccccc2)n1 | – | – | > 100 | > 100 µM | > 100 | > 100 µM | > 100 µM | > 100 µM | > 100 | – | – | – | – | – | – | – | > 100 | – | – | –
C[C@@H]1CCC([C@@H](C)[C@H]2CC[C@H]3[C@@H]4CC[C@H]5C[C@@H](O)CC[C@]5(C)[C@H]4CC[C@]23C)=NC1 | > 85 µM | > 100 | > 71 | 46.3 µM | > 77.3 | > 100 µM | > 70.8 µM | > 100 µM | > 100 | – | – | – | – | – | – | – | > 100 | – | – | –
CCC(O)C1Cc2c(C)cc3c(c2O1)C(=O)c1ccccc1C3=O (stereo not drawn) | – | – | > 100 | 61.2 µM | > 100 | > 100 µM | > 100 µM | > 100 µM | 97.1 | – | – | – | – | – | – | – | 88.6 | – | – | –
CCCCNC(=O)C1C(=O)N(CCCC)C(=O)/C1=N\N (stereo not drawn) | – | – | > 100 | > 100 µM | > 100 | > 100 µM | > 100 µM | > 100 µM | > 100 | – | – | – | – | – | – | – | > 100 | – | – | –
NC(N)=NC(N)=Nc1cnccn1 | – | > 100 | > 100 | > 100 µM | > 100 | – | > 100 µM | > 100 µM | > 100 | – | – | – | – | – | – | – | > 100 | – | – | –
COC(=O)c1ccccc1N1C(=O)Cc2ccccc2C1=O | – | – | 74 | > 100 µM | > 100 | > 100 µM | > 100 µM | > 100 µM | – | – | – | – | – | – | – | – | > 100 | – | – | –
COc1ccc2c(c1)[nH]c(=O)c1c3ccccc3cn21 | 2.03 µM and 3.83 µM | – | – | 2.26 µM and 5.82 µM | – | 7.86 µM and 5.56 µM | 1.89 µM and 13.3 µM | 3.39 µM and 14.6 µM | 15.9 | 0.0549 | – | – | 0.0795 | – | 0.101 | – | 14.9 | 0.0738 | – | 1.01 µM and 2.18 µM
O=c1[nH]c(=O)c2cc3cc(C4CC(O)C(CO)O4)ccc3cc2[nH]1 (stereo not drawn) | > 100 µM | > 100 | > 100 | 67 µM | > 100 | > 100 µM | > 100 µM | > 100 µM | > 100 | > 100 | > 100 | 34.5 | 8.48 | > 100 | > 100 | – | – | > 100 | > 100 | > 100 µM
